Reference: US7041787B2, “Design and use of advanced zinc chelating peptides to regulate matrix metalloproteinases” (Kimberly-Clark Worldwide, Inc., priority 2000, dated 2006)
Values belong to the molecule of their own block, whether it stands above or below them. *1 amine or outer side, *2 acyl side, *3 side chain or, on linkers, in order; H or OH if unused. Where a SMILES comes first, the peptide text is derived from it. [ ]: non-standard residue; d: D form. The star is where a group is joined. X2 = O=C(O)CN(CC(=O)O)CC(=O)NC(=O)C[C@H](N[*:1])C(=O)[*:2]; X3 = O=C(O)CN(CC(=O)O)CC(C(=O)NCCS*)N(CC(=O)O)CC(=O)O; X1 = O=C(O)CN(CC(=O)O)c1cc(F)ccc1OCC(=O)*

Legend:
MMP-9 [1] = molecular target: T1, MMP-9 (Homo sapiens, UniProt P14780); experiment: FRET substrate peptide cleavage assay with MMP-9; format: biochemical; conditions: for Regulation of MMP-9 compared with other ChePeps (in words): FRET assay, comparison of molar stoichiometries; for Regulation of MMP-9 in FRET assay (in words): ChePep:MMP-9 molar stoichiometries 0.1:1 to 0.3:1, FIGS. 2-5
T1 construct: Active MMP-9 enzyme was purchased from Calbiochem; purchased Calbiochem
T1 sequence (P14780 107-707 limits assumed): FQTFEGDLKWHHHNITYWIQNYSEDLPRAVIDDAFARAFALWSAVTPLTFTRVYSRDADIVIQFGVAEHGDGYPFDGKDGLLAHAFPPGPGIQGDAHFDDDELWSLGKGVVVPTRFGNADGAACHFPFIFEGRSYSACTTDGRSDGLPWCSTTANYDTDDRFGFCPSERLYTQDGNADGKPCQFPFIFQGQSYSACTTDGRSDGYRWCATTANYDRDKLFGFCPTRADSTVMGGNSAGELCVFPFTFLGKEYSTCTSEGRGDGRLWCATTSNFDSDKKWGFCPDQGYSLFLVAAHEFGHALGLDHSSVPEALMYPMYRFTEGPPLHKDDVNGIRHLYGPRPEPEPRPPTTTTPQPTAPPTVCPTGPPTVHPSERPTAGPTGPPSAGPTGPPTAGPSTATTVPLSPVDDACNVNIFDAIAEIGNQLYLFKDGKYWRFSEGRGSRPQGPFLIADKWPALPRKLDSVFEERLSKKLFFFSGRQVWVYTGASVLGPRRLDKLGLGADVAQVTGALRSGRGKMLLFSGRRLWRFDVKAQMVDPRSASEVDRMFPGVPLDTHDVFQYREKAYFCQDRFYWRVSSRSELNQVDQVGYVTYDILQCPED
Experimental: The second assay utilized the technique of fluorescence resonance energy transfer (FRET). The substrate peptide (Calbiochem #444221) comprised seven amino acids, coupled to a carboxyl terminal dinitrophenyl acceptor, and an amino terminal 2-aminobenzo-anthraniloyl (Abz) moiety donor. Cleavage of this substrate by MMP-9 results in the liberation of a fluorescent product (365 nm excitation, 450 nm emission). […] MMP at a concentration of 0.1 μM was mixed with varying amounts of chelating peptide (0, 0.01, 0.02, 0.04, and 0.1 μM) and incubated at 25° C. for 10 minutes to effect binding. The protein mixture was added to the peptide substrate and mixed quickly. Fluorescence intensity as a function of time was measured with a Dynex MFX fluorescence microtiter plate reader. Fluorescence intensity was related back to moles of peptide cleaved by producing a standard curve with an Abz containing non-FRET peptide. Inhibitory constants were derived from the curves and are listed below in Table 2.

MMP-9 [2] = molecular target: T1, MMP-9; experiment: Surface plasmon resonance (BiaCore) binding of chelating peptide to immobilized MMP-9; conditions: FIG. 6
Experimental: The BiaCore-X surface plasmon resonance (SPR) device was utilized to measure the interaction between the chelating peptide (CP) and MMP-9. For these experiments a carboxymethyl dextran sensor chip (BiaCore, AB; CM-5, Lofas et al., 1993) was activated with 50 mM N-hydroxysuccinimide, 0.2 M N-ethyl-N′-(dimethylaminopropyl)-carbodiimide at a flow rate of 10 μL per minute for ten minutes. MMP-9 at a concentration of 75 ng/μL was coupled to the activated surface at a flow rate of 10 μL per minute for ten minutes. The final surface was inactivated by flowing 1 M ethanolamine HCl at a rate of 10 μL per minute for five minutes over the sensor surface. CP was flowed over the sensor surface at a rate of 20 μL per minute, and at concentrations of 10, 25, and 50 nM. Binding isotherms were evaluated by simultaneously fitting the forward (ka) and reverse (kd) rate constants to the following formula: d[CP˜MMP-9]/dt=(ka[CP][MMP-9])−(kd[CP˜MMP-9]) (2) (Karlsson and Falt, 1997) where [CP], [MMP-9], and [CP˜MMP-9] are the concentrations of free chelating peptide, free MMP-9, and the complex respectively. […]

Epiderm skin model = experiment: Epiderm skin equivalent viability (MTT) assay; format: cell-based; conditions: 10 mM peptide in PBS, 12 hours; differences not significant
Experimental: The relative toxicity of the chelating and substrate peptides was assayed using the skin model Epiderm that is commercially available from MatTek Corp. The individual skin sample containers were preincubated in culture medium at 37° C. under 5% CO2 for two hours prior to the addition of the peptide constructs. The sample containers were transferred to 6 well plates that contained fresh media. All peptides were dissolved in PBS at a final concentration of 10 mM, and 100 μL of each peptide solution was pipetted onto the surface of the Epiderm sample container. Incubation was continued for 12 hours at 37° C. under 5% CO2. After the incubation period, the sample containers were washed three times with PBS and the sample containers were transferred to a 24 well plate that contained 300 μL of MTT assay media per well (MTT concentration was 1 mg/mL). The colorimetric assay was allowed to develop for three hours (incubation at 37° C. under 5% CO2). Sample containers were then transferred to a 24 well culture plate that contained 2 mL of isopropanol per well. […] Absorbance readings were taken at 570 nm and 650 nm for each sample. The percent viability of each sample relative to a PBS control was calculated as: 100×(OD570^sam−OD650^sam)/(OD570^con−OD650^con) (5) Routinely, each peptide sample was assayed in duplicate or triplicate. […]

MMP-9 [3] = molecular target: T1, MMP-9; experiment: Enzymatic hydrolysis of fluoresceinated collagen by MMP-9 (fluorescein release assay); format: biochemical; conditions: MMP-9:ChePep-1 molar stoichiometries 1:0 to 1:1, FIG. 1
Experimental: Two enzymatic assays were performed. The first assay measured the enzymatic hydrolysis of fluoresceinated collagen by MMP-9 as a function of time. Fluoresceinated collagen (Molecular Probes, Inc.), at a concentration of 5 μM was added to reaction buffer (50 mM Tris-HCl (pH 7.6), 150 mM NaCl, 5 mM CaCl2, 0.1 mM NaN3) and was placed into a Spectrosil quartz fluorometer cuvette. MMP at a concentration of 0.1 μM was mixed with varying amounts of chelating peptide having SEQ ID No. 4 or 6 and incubated at 25° C. for 10 minutes to effect binding. The protein mixture was added to the collagen substrate and mixed quickly. Fluorescence emission intensity at 520 nm was measured as a function of time (excitation wavelength 495 nm) in a Shimadzu RF5301 fluorometer. The fluorescein release assay was used to determine the inhibitory constant (Ki) of the chelating peptide inhibitor ([I]) according to Segel (1993) via the use of Dixon plots (1/v vs. [I]), such that: slope=Km/(VmaxKi[S]) (1) where Km is the Michaelis constant, Vmax is the reaction maximum velocity, and [S] is the substrate concentration.

Molecule: CC[C@H](C)[C@H](N)C(=O)N[C@@H](Cc1ccc(O)cc1)C(=O)N[C@H](C(=O)N[C@@H](C)C(=O)N[C@@H](CSSCCNC(=O)C(CN(CC(=O)O)CC(=O)O)N(CC(=O)O)CC(=O)O)C(=O)N[C@@H](CCSC)C(=O)N[C@@H](CO)C(=O)N[C@@H](C)C(=O)N[C@H](C(N)=O)C(C)C)[C@@H](C)O (some centres unmarked) [ChePep-3] (H-IYTAC(X3)MSAV-NH2; N-terminus assumed)
Regulation of MMP-9 compared with other ChePeps (in words) (MMP-9 [1]): nearly identical ability to regulate MMP-9

Molecule: CC[C@H](C)[C@H](N)C(=O)N[C@@H](Cc1ccc(O)cc1)C(=O)N[C@H](C(=O)N[C@@H](C)C(=O)N[C@@H](CC(=O)NC(=O)CN(CC(=O)O)CC(=O)O)C(=O)N[C@@H](CCSC)C(=O)N[C@@H](CO)C(=O)N[C@@H](C)C(=O)N[C@H](C(N)=O)C(C)C)[C@@H](C)O [ChePep-4] (H-IYTA[X2]MSAV-NH2; N-terminus and C-terminus assumed)
Regulation of MMP-9 compared with other ChePeps (in words) (MMP-9 [1]): nearly identical ability to regulate MMP-9

SPR association / affinity for immobilized MMP-9 (in words) (MMP-9 [2]; 400 second association phase, 20 μL per minute): binds quickly and with high affinity
SPR dissociation from immobilized MMP-9 (in words) (MMP-9 [2]; 800 second dissociation phase): does not dissociate
Regulation of MMP-9 compared with other ChePeps (in words) (MMP-9 [1]): most potent regulator of all the ChePeps
Molecule: CC(C)C(NC(=O)C(CS)NC(=O)C(NC(=O)C(CS)NC(=O)COc1ccc(F)cc1N(CC(=O)O)CC(=O)O)C(C)O)C(=O)N1CCCC1C(=O)O (centres unmarked) [ChePep-6] (X1-CTCVP-OH; configuration not given here)
Regulation of MMP-9 in FRET assay (in words) (MMP-9 [1]): effective MMP-9 regulator at low molar stoichiometries

Molecule: pyridine disulfide ethylenediaminetetraacetic acid [PSDE]
Percent viability relative to PBS control, by zinc chelator of the construct (Epiderm skin model): 96.5%

Molecule: 2-amino-4-fluorophenol N,N,O triacetic acid [AFTA]
Percent viability relative to PBS control, by zinc chelator of the construct (Epiderm skin model): 90.5%

Molecule: CC(C)[C@H](NC(=O)[C@@H]1CCCN1C(=O)[C@@H](NC(=O)[C@H](C)NC(=O)[C@H](CO)NC(=O)[C@@H](N)CSSCCNC(=O)C(CN(CC(=O)O)CC(=O)O)N(CC(=O)O)CC(=O)O)C(C)C)C(=O)N[C@@H](Cc1c[nH]cn1)C(=O)O (some centres unmarked) [ChePep-1] (H-C(X3)SAVPVH-OH)
Regulation of MMP-9 hydrolysis of fluoresceinated collagen (in words) (MMP-9 [3]): prevents the enzyme from degrading fluoresceinated collagen in a dose dependent manner

Regulation of MMP-9 in FRET assay (in words) (MMP-9 [1]): dose dependent manner
Molecule: CC(C)[C@H](NC(=O)[C@@H]1CCCN1C(=O)[C@@H](NC(=O)[C@H](C)NC(=O)[C@H](CO)NC(=O)[C@@H](N)CC(=O)NC(=O)CN(CC(=O)O)CC(=O)O)C(C)C)C(=O)N[C@@H](Cc1c[nH]cn1)C(N)=O [ChePep-2] (H-[X2]SAVPVH-NH2)
Regulation of MMP-9 compared with other ChePeps (in words) (MMP-9 [1]): significantly more effective in regulating MMP-9 than was ChepPep-1
